According to ChEMBL document CHEMBL2346635, “6-Oxo and 6-thio purine analogs as antimycobacterial agents” (Bioorg Med Chem, 2013):
≈ marks a conversion by molar mass, not a printed value.

Tests used:
Format in all cases: functional
[1] = tested on: Mycobacterium tuberculosis; assay: Antimycobacterial activity against ciprofloxacin-resistant Mycobacterium tuberculosis assessed as growth inhibition by Alamar blue assay
[2] = tested on: Mycobacterium tuberculosis; assay: Antimycobacterial activity against ethambutol-resistant Mycobacterium tuberculosis assessed as growth inhibition by Alamar blue assay
[3] = tested on: Mycobacterium tuberculosis; assay: Antimycobacterial activity against rifampin-resistant Mycobacterium tuberculosis assessed as growth inhibition by Alamar blue assay
[4] = tested on: Mycobacterium tuberculosis; assay: Antimycobacterial activity against isoniazid-resistant Mycobacterium tuberculosis assessed as growth inhibition by Alamar blue assay
[5] = tested on: Mycobacterium tuberculosis; assay: Antimycobacterial activity against kanamycin-resistant Mycobacterium tuberculosis assessed as growth inhibition by Alamar blue assay
[6] = tested on: Mycobacterium tuberculosis; assay: Antimycobacterial activity against thiacetazone-resistant Mycobacterium tuberculosis assessed as growth inhibition by Alamar blue assay

SMILES	MIC90 [1] [µg/mL]	MIC90 [2] [µg/mL]	MIC90 [3] [µg/mL]	MIC90 [4] [µg/mL]	MIC90 [5] [µg/mL]	MIC90 [6] [µg/mL]
CCCCCCCCCCSc1ncnc2c1ncn2CC(=O)OCC	12.5 (≈ 33 µM)	6.25 (≈ 16.5 µM)	6.25 (≈ 16.5 µM)	12.5 (≈ 33 µM)	6.25 (≈ 16.5 µM)	–
CCCCCCCCCCCCSc1ncnc2c1ncn2CC(=O)OCC	1.56 (≈ 3.84 µM)	3.13 (≈ 7.7 µM)	3.13 (≈ 7.7 µM)	1.56 (≈ 3.84 µM)	–	3.13 (≈ 7.7 µM)
